According to US11999957B2, “Method for enhancing vanillin resistance of Saccharomyces cerevisiae by knocking out SNG1 gene” (QILU UNIVERSITY OF TECHNOLOGY, priority 2020, dated 2024):

Experiments:
sng1Δ mutant [1] = experiment: Shake-flask fermentation under vanillin stress (OD600 growth); type: cell-based, Saccharomyces cerevisiae
Procedure: (§1) A single colony of the sng1Δ mutant was picked, transferred to 1-2 mL of a SC medium and cultured at 30° C. and 200 rpm for about 24 h. The cell suspension was transferred to 20 mL of fresh medium at an initial OD600 of 0.2 and cultured at 30° C. and 200 rpm overnight to the mid log phase for secondary activation. Then the cell culture, at an initial OD600 of 0.2, was transferred to 40 mL of a SC medium containing 6 mmol/L of vanillin and cultured at 30° C. and 200 rpm under shaking, where the OD600 was regularly measured.
(§2) The maximum specific growth rate was obtained by calculating a […] regression slope of ln(OD600) versus time in the logarithmic growth phase.

wild-type BY4741 strain = experiment: as above; type: cell-based, Saccharomyces cerevisiae; conditions: wild-type BY4741, SC medium containing 6 mmol/L of vanillin, 30° C., 200 rpm
Procedure: as §1, §2
Similarly, the specific consumption rate of vanillin in the wild-type BY4741 strain was calculated to be 0.035 g g^−1 h^−1 according to the above method (FIG. 4).

sng1Δ mutant [2] = experiment: Growth on YEPD plate containing vanillin (spot dilution test); type: cell-based, Saccharomyces cerevisiae; conditions: YEPD plate with 6 mmol/L of vanillin, 30° C., 1-3 days, sng1Δ mutant vs control strain
Procedure: The sng1Δ mutant obtained above was cultured on a YEPD plate containing 6 mmol/L of vanillin to observe its growth status. Specifically, the sng1Δ mutant was inoculated to 1-2 mL of a liquid YEPD medium and cultured at 30° C. overnight to logarithmic growth phase. Then the mutant cells were transferred to 5 mL of fresh medium at an initial OD600 of 0.2, cultured overnight and centrifuged. The cells were collected, washed with 1 mL of sterile water three times and centrifuged at 8,000 r/min. The cells were again suspended with sterile water and placed at 30° C. for 9 h to prepare resting cells, and during the preparation, the medium was prepared, poured to a plate and naturally dried. The cell suspension was adjusted to OD600 of 1.0 and subjected to 10-fold serial dilution, and 4 μL of the suspension at each dilution was dropped on the plate, cultured at 30° C. for 1-3 days and photographed to observe the colony growth. The control strain was tested in the same way for the vanillin resistance.

Saccharomyces cerevisiae = conditions: 0.9 g/L vanillin; extended from 2 hours without vanillin; cited from earlier work

COc1cc(C=O)ccc1O [vanillin]
maximum specific growth rate (sng1Δ mutant [1]; sng1Δ mutant, SC medium containing 6 mmol/L of vanillin, aerobic, shaking, 30° C., 200 rpm): 0.225 h⁻¹
improvement of maximum specific growth rate of sng1Δ mutant compared to the control strain (sng1Δ mutant [1]; under vanillin stress (6 mmol/L), sng1Δ mutant vs BY4741): 70%
maximum specific growth rate (wild-type BY4741 strain): 0.132 h⁻¹
growth status on plate under vanillin stress (sng1Δ mutant [2]): superior growth status to the control strain
delay period (lag) of growth (Saccharomyces cerevisiae): about 24 hours
